What was measured:
[1] = system: murine brachial plexus and sciatic nerves; test: Nerve-specificity screening using direct/topical administration; assay type: in vivo, mouse; settings: 125 μM, imaged 30 minutes after staining
Method: (§1) All reagents were purchased from Sigma Aldrich, Fisher Scientific, TCI, or Ark Pharm. Unless otherwise indicated, all commercially available starting materials were used directly without further purification. Analytical thin layer chromatography (TLC) was performed on Millipore ready-to-use plates with silica gel 60 (F254, 32-63 μm). Flash chromatography was performed on Sorbent Technologies silica gel for column chromatography or on a Biotage Isolera Flash System using SNAP Ultra cartridges. High-resolution mass spectra (HRMS) were measured on a ThermoElectron LTQ-Orbitrap high resolution mass spectrometer with a dedicated Accela HPLC system, or an Agilent 6244 time-of-flight LCMS with diode array detector VL+. LCMS and Purity Characterization Mass-to-charge ratio and purity of the Oxazine compounds were characterized on an Agilent 6244 time-of-flight tandem liquid chromatography mass spectroscopy (LCMS) with diode array detector VL+. Sample (10 μL) was injected into a C18 column (Poroshell 120, 4.6×50 mm, 2.7 micron), and eluted with a solvent system of A (H2O, 0.1% FA) and B (MeCN, 01.% FA) at 0.4 mL/min, from A/B=90/10 to 5/95 over 10 min, maintained at A/B=5/95 for additional 5 min. Ions were detected in positive ion mode by setting the capillary voltage at 4 kV and gas temperature at 350° C. Purity was calculated through area under the curve analysis of the absorbance at 254 nm. UV-Vis Absorption and Fluorescence Spectroscopy. UV-Vis spectra were collected with a Cary 50 UV-Vis spectrophotometer at room temperature, using a 1-cm quartz cuvette. Fluorescence spectra were collected on a Cary Eclipse fluorescence spectrophotometer (Agilent Technologies). All absorbance spectra were reference corrected. Extinction coefficient was calculated from Beer's Law plots of absorbance versus concentration. Fluorescence spectra were corrected for the wavelength dependent response of the R928 photomultiplier tube using a manufacturer generated correction file. Relative quantum yields are reported as the average of multiple measurements using multiple references, including Oxazine 1, Oxazine 170, and Rhodamine 101. Physicochemical Property Calculation. Physicochemical partition coefficients (Log D) values at pH 7.4, number of hydrogen bond donors and acceptors, polar surface area, and the number of rotatable bonds were calculated using Marvin and JChem calculator plugins (ChemAxon, Budapest, Hungary). Nerve-Specificity Screening using Direct/Topical Administration Each compound was screened for its tissue-specificity using a previously published direct/topical administration strategy in murine brachial plexus and sciatic nerves.^1 Each compound from the Oxazine library was formulated in the previously utilized co-solvent formulation (10% DMSO, 5% Kolliphor, 65% serum and 20% phosphate buffered saline) at 125 μM. 100 μL of the formulated Oxazine were incubated on the exposed brachial plexus or sciatic nerve for 5 minutes. The fluorophore containing solution was removed and the area was irrigated with saline 18 times to remove any unbound fluorophore. Co-registered fluorescence and color images were collected of each stained area 30 minutes after Oxazine direct/topical administration using a custom built macroscopic imaging system with 620/60 nm excitation and 700/75 nm bandpass emission filters. Custom written MatLab code was used to analyze the tissue specific fluorescence where regions of interest were selected on the nerve, muscle and adipose tissue using the white light images. These regions of interest were then analyzed on the co-registered matched fluorescence images permitting assessment of the nerve to muscle and nerve to adipose ratios in blinded manner. […]

[2] = system: murine brachial plexus and sciatic nerves; test: Nerve-specificity screening using systemic administration; assay type: in vivo; settings: IV; for nerve specificity / nerve contrast (N/M vs control group) following systemic administration: 200 nmol, 4 hours prior to imaging; for toxicity upon systemic administration: mice
[3] = UV-Vis absorption and fluorescence spectroscopy of the Oxazine library; assay type: physicochemical; settings: for Extinction coefficient: Beer's Law plots; for Quantum yield: relative, references Oxazine 1, Oxazine 170, Rhodamine 101
Method: as §1

Row | Molecule | nerve specificity (N/M contrast vs control group) via direct administration [1] | nerve specificity / nerve contrast (N/M vs control group) following systemic administration [2] | Max Abs [3] [nm] | Max Em [3] [nm] | Max Ex [3] [nm] | Extinction coefficient [3] [M⁻¹ cm⁻¹] | Quantum yield [3] [%] | toxicity upon systemic administration [2]
1 | CC/N=c1\ccc2nc3ccc(NCC)cc3oc-2c1 [LGW01-21, (E)-N-(7-(ethylamino)-3H-phenoxazin-3-ylidene)ethanaminium] | positive nerve specificity | negative for nerve contrast | 617 | 634 | 620 | 28745 | 30.12 | 
2 | CC/N=c1/cc2oc3cc(N(CC)CC)c(C)cc3nc-2cc1C [LGW01-23, (Z)—N-(7-(diethylamino)-2,8-dimethyl-3H-phenoxazin-3-ylidene)ethanaminium] | positive nerve specificity | negative for nerve contrast | 645 | 635 | 620 | 62445 | 0.67 | 
3 | CCC/N=c1/cc2oc3cc(NCCC)c(C)cc3nc-2cc1C [LGW01-64, (Z)—N-(2,8-dimethyl-7-(propylamino)-3H-phenoxazin-3-ylidene)propan-1-aminium] | positive nerve specificity | negative for nerve contrast | 620 | 638 | 620 | 50166 | 42.15 | toxic upon systemic administration
4 | CC/N=c1/cc2oc3c4c5c(cc3nc-2cc1C)CCCN5CCC4 [LGW01-99, (Z)—N-(11-methyl-2,3,6,7-tetrahydro-1H,5H,12H-quinolizino[1,9-bc]phenoxazin-12-ylidene)ethanaminium] |  |  | 648 | 667 | 650 | 56046 | 10.14 | toxic upon systemic administration
5 | CC/N=c1/cc2oc3cc(NCC)cc(C)c3nc-2c(C)c1 [LGW02-95, (E)-N-(7-(ethylamino)-1,9-dimethyl-3H-phenoxazin-3-ylidene)ethanaminium] | positive nerve specificity | negative for nerve contrast | 606 | 627 | 605 | 48653 | 32.50 | 
6 | CC1=CC(C)(C)Nc2cc3c(cc21)N=c1cc2c(cc1O3)=NC(C)(C)C=C2C [LGW03-01, 2,2,4,8,10,10-hexamethyl-10,11-dihydro-2H-dipyrido[3,2-b:2′,3′-i]phenoxazin-1-ium] | positive nerve specificity | negative for nerve contrast | 677 | 695 | 680 | 44453 | 17.27 | 
7 | CC[N+](CC)=c1ccc2nc3ccc(N4CCCC4)cc3oc-2c1 [LGW03-07, N-ethyl-N-(7-(pyrrolidin-1-yl)-3H-phenoxazin-3-ylidene)ethanaminium] | negative nerve specificity | positive | 654 | 672 | 660 | 52356 | 9.28 | 
8 | CCN(CC)c1cc2oc3cc(=[N+](CC)CC)ccc-3nc2cc1C [LGW03-23, N-(7-(diethylamino)-8-methyl-3H-phenoxazin-3-ylidene)-N-ethylethanaminium] | positive nerve specificity | negative for nerve contrast | 664 | 690 | 645 | 23099 | 1.53 | 
9 | CC[N+](CC)=c1ccc2nc3cc4c(cc3oc-2c1)NCCO4 [LGW03-37, N-(3,4-dihydro-[1,4]oxazino[2,3-b]phenoxazin-8(2H)-ylidene)-N-ethylethanaminium] | positive nerve specificity | negative for nerve contrast | 646 | 670 | 650 | 48849 | 4.34 | 
10 | CCN1CCOc2cc3c(cc21)Oc1cc2c(cc1=N3)OCC[N+]=2CC [LGW05-73, 4,8-diethyl-3,8,9,10-tetrahydro-2H-bis([1,4]oxazino)[2,3-b:3′,2′-i]phenoxazin-4-ium] |  |  | 657 | 676 | 660 | 55570 | 32.95 | 
11 | CC/N=c1/cc2oc3cc4c(cc3nc-2cc1C)CCN4CC [LGW05-76, (Z)—N-(1-ethyl-7-methyl-2,3-dihydropyrrolo[3,2-b]phenoxazin-8(1H)-ylidene)ethanaminium] |  |  | 628 | 650 | 630 | 45449 | 32.68 | 
12 | CC/N=c1/cc2oc3cc(NCC)c(F)cc3nc-2cc1C [LGW05-81, (Z)—N-(7-(ethylamino)-8-fluoro-2-methyl-3H-phenoxazin-3-ylidene)ethanaminium] |  |  | 611 | 632 | 610 | 58410 | 43.02 | 
13 | CCNc1cc2oc3cc(=[N+](CC)CC)ccc-3nc2cc1F [LGW05-82, N-ethyl-N-(7-(ethylamino)-8-fluoro-3H-phenoxazin-3-ylidene)ethanaminium] |  |  | 636 | 661 | 640 | 36833 | 2.70 | 
14 | Cc1cc2nc3cc(C)c(=N)cc-3oc2cc1N [LGW06-14, 7-amino-2,8-dimethyl-3H-phenoxazin-3-iminium] |  |  | 590 | 606 | 590 | 39303 | 37.61 | 
15 | CCN1CCc2cc3c(cc21)Oc1cc2c(cc1=N3)CC[N+]=2CC [LGW07-59, 1,9-diethyl-2,3,7,8-tetrahydro-1H-dipyrrolo[3,2-b:2′,3′-i]phenoxazin-9-ium] |  |  | 649 | 665 | 655 | 51130 | 32.17 | 
16 | CCN(CC)c1ccc2nc3ccc(=[N+](CC)CC)cc-3oc2c1.[O-][Cl+3]([O-])([O-])[O-] [OX-1, reference compound] |  |  | 655 | 671 | 660 | 93211 | 7.40 | 
17 | (Z)—N-(7-(dimethylamino)-2-methyl-3H-phenoxazin-3-ylidene)ethanaminium [LGW04-84] |  |  | 637 | 658 | 640 | 50981 | 3.95 | 
18 | N-ethyl-N-(2,2,4,8-tetramethyl-1,2-dihydro-9H-pyrido[3,2-b]phenoxazin-9-ylidene)ethanaminium [LGW01-56] |  |  | 664 | 684 | 670 | 38832 | 11.68 | 
